Experimental data published in patent US20060127894A1, “Protein associated with cell growth, differentiation, and death” (Incyte Corporation, priority 2001, published 2006).

Tests used:
[1] = cited from earlier work
[2] = test system: SEQ ID NO:45 expression in C3A cells; test: Microarray expression analysis of steroid-treated versus untreated C3A cells; assay type: cell-based, human
Procedure: Total RNA is isolated from tissue samples using the guanidinium thiocyanate method and poly(A)^+ RNA is purified using the oligo-(dT) cellulose method. Each poly(A)^+ RNA sample is reverse transcribed using MMLV reverse-transcriptase, 0.05 pg/μl oligo-(dT) primer (21 mer), 1×first strand buffer, 0.03 units/μL RNase inhibitor, 500 μM dATP, 500 μM dGTP, 500 μM dTTP, 40 μM dCTP, 40 μM dCTP-Cy3 (BDS) or dCTP-Cy5 (Amersham Biosciences). The reverse transcription reaction is performed in a […] containing 200 ng poly(A)^+ RNA with GEMBRIGHT kits (Incyte). Specific control poly(A)+ RNAs are synthesized by in vitro transcription from non-coding yeast genomic DNA. After incubation at 37° C. for 2 hr, each reaction sample (one with Cy3 and another with Cy5 labeling) is treated with […] of 0.5M sodium hydroxide and incubated for 20 minutes at 85° C. to the stop the reaction and degrade the RNA. Samples are purified using two successive CHROMA SPIN 30 gel filtration spin columns (CLONTECH Laboratories, Inc. (CLONTECH), Palo Alto Calif.) and after combining, both reaction samples are ethanol precipitated using 1 ml of glycogen (1 mg/ml), 60 ml sodium acetate, and 300 ml of 100% ethanol. The sample is then dried to completion using a SpeedVAC (Savant Instruments Inc., Holbrook N.Y.) and resuspended in 14 μl 5×SSC/0.2% SDS.
Sequences of the present invention are used to generate array elements. Each array element is amplified from bacterial cells containing vectors with cloned cDNA inserts. PCR amplification uses primers complementary to the vector sequences flanking the cDNA insert. Array elements are amplified in thirty cycles of PCR from an initial quantity of 1-2 ng to a final quantity greater than 5 μg. Amplified array elements are then purified using […]-400 (Amersham Biosciences).
Hybridization reactions contain 9 μl of sample mixture consisting of 0.2 μg each of Cy3 and Cy5 labeled cDNA synthesis products in 5×SSC, 0.2% SDS hybridization buffer. The sample mixture is heated to 65° C. for 5 minutes and is aliquoted onto the microarray surface and covered with an 1.8 cm^2 coverslip. The arrays are transferred to a waterproof chamber having a cavity just slightly larger than a microscope slide. The chamber is kept at 100% humidity internally by the addition of 140 μl of 5×SSC in a comer of the chamber. The chamber containing the arrays is incubated for about 6.5 hours at 60° C. The arrays are washed for 10 min at 45° C. in a first wash buffer (1×SSC, 0.1% SDS), three times for 10 minutes each at 45° C. in a second wash buffer (0.1×SSC), and dried.
Reporter-labeled hybridization complexes are detected with a microscope equipped with an Innova 70 mixed gas 10 W laser (Coherent, Inc., Santa Clara Calif.) capable of generating spectral lines at 488 nm for excitation of Cy3 and at 632 nm for excitation of CyS. The excitation laser light is focused on the array using a 20× microscope objective (Nikon, Inc., Melville N.Y.). The slide containing the array is placed on a computer-controlled X-Y stage on the microscope and raster-scanned past the objective. The 1.8 cm×1.8 cm array used in the present example is scanned with a resolution of 20 micrometers.
A grid is superimposed over the fluorescence signal image such that the signal from each spot is centered in each element of the grid. The fluorescence signal within each element is then integrated to obtain a numerical value corresponding to the average intensity of the signal. […]

[3] = test system: human umbilical vein endothelial cells (HUVECs); conditions: cited from earlier work
[4] = test system: SEQ ID NO:33 expression in BT-20 cells; test: Microarray expression analysis of BT-20 cells treated with EGF; assay type: cell-based, human; conditions: BT-20 breast carcinoma cells
Procedure: Total RNA is isolated from tissue samples using the guanidinium thiocyanate method and poly(A)^+ RNA is purified using the oligo-(dT) cellulose method. Each poly(A)^+ RNA sample is reverse transcribed using MMLV reverse-transcriptase, 0.05 pg/μl oligo-(dT) primer (21 mer), 1×first strand buffer, 0.03 units/μL RNase inhibitor, 500 μM dATP, 500 μM dGTP, 500 μM dTTP, 40 μM dCTP, 40 μM dCTP-Cy3 (BDS) or dCTP-Cy5 (Amersham Biosciences). The reverse transcription reaction is performed in a […] containing 200 ng poly(A)^+ RNA with GEMBRIGHT kits (Incyte). Specific control poly(A)+ RNAs are synthesized by in vitro transcription from non-coding yeast genomic DNA. […]
Sequences of the present invention are used to generate array elements. […] Array elements are amplified in thirty cycles of PCR from an initial quantity of 1-2 ng to a final quantity greater than 5 μg. […]
Reporter-labeled hybridization complexes are detected with a microscope equipped with an Innova 70 mixed gas 10 W laser (Coherent, Inc., Santa Clara Calif.) capable of generating spectral lines at 488 nm for excitation of Cy3 and at 632 nm for excitation of CyS. […]
A grid is superimposed over the fluorescence signal image such that the signal from each spot is centered in each element of the grid. […]

[5] = dose 10 μM, 1 hour of treatment
[6] = dose 10 μM, 3 hours of treatment

6α-methyl-17-hydroxyprogesterone [medroxyprogesterone]
pharmacological activity relative to progesterone ([1]; greater than progesterone): about 15 times | expression of SEQ ID NO:45 increased in drug-treated, as compared to untreated, C3A cells [2, 5]: at least two-fold | expression of SEQ ID NO:45 increased in drug-treated, as compared to untreated, C3A cells [2, 6]: at least two-fold

C[C@H]1C[C@H]2[C@@H]3CCC4=CC(=O)C=C[C@]4(C)[C@@]3(Cl)[C@@H](O)C[C@]2(C)[C@@]1(O)C(=O)CO [beclomethasone]
anti-inflammatory and vasoconstrictive effects relative to hydrocortisone ([1]; intranasal, greater than those produced by hydrocortisone): 5000 times | expression of SEQ ID NO:45 increased in drug-treated, as compared to untreated, C3A cells ([2]; dose 1 μM, 3 hours of treatment): at least two-fold | expression of SEQ ID NO:45 increased in drug-treated, as compared to untreated, C3A cells [2, 5]: at least two-fold | expression of SEQ ID NO:45 increased in drug-treated, as compared to untreated, C3A cells [2, 6]: at least two-fold

TNF-α
increase of cellular secretions of MCP-1 compared with untreated cells [3]: 119 fold

epidermal growth factor: a potent mitogen (NSDSECPLSHDGYCLHDGVCMYIEALDKYACNCVVGYIGERCQYRDLKWWELR; Epidermal growth factor; UniProt P01133 971-1023, looked up)
expression of SEQ ID NO:33 down-regulated on treatment of BT-20 cells [4]: at least two-fold
